Results from US6998503B2, “Crystalline solid form of (2S,5Z)-2-amino-7-(ethanimidoylamino)-2-methylhept-5-enoic acid” (Pharmacia Corporation, priority 2002, dated 2006).
“And” between values parts separate entries of the source, which are not always exact repeats. Equal values may be shown once. Values belong to the compound of their own block, whether it stands above or below them.

Legend:
Type in all cases: physicochemical
[1] = Analysis of amorphous material (hygroscopicity note at elemental analysis); details: observed at elemental analysis
[2] = Solubility of the amorphate in solvents
[3] = Moisture sorption by DVS moisture balance; details: for Desorption / Sorption (moisture gain) / Hysteresis Cycle 1: 25° C.
From the text: The crystalline 2-amino-7-(ethanimidoylamino)-2-methylhept-5-enoic acid 1.5 HCl is nonhygroscopic at and below 70% relative humidity. […] At 80% R.H. the gain was 18.5%, and at 90% R.H. the gain was 76.8%. The instrument cycled back to low relative humidity and the sample was removed then examined by polarized light microscopy. The sample was fully crystalline after removal from the moisture balance, but the crystallite size had increased. […] This salt form, 1.5 HCl has no solvation.

- solubility ([2]; dry solvents: acetone, MEK, methyl isobutyl ketone, THF, ethyl acetate, chloroform, methylene chloride, hexanes, cyclohexane, di-isopropyl ether, acetonitrile, toluene): less than one
- solubility ([2]; in isopropanol and solvents containing water: 10% water in THF, water saturated ethyl acetate, 10% water in acetonitrile, higher alcohols with water): soluble
- solubility ([2]; in water, methanol and ethanol): freely soluble
Structure (SMILES): CC(=N)NC/C=C\CCC(C)(N)C(=O)O (stereo in doubt) [(2S,5Z)-2-amino-7-(ethanimidoylamino)-2-methylhept-5-enoic acid]
- hygroscopicity [1]: (Note: Material appears to be hygroscopic - elemental

- Desorption ([3]; target RH 0.0%): 13.02%
- Sorption (moisture gain) ([3]; target RH 0.0%): 0.00%
- Sorption (moisture gain) ([3]; target RH 10.0%): 0.10%
- Desorption ([3]; target RH 20.0%): 18.93%
- Hysteresis Cycle 1 ([3]; target RH 20.0%): 18.77%
- Sorption (moisture gain) ([3]; target RH 20.0%): 0.16%
- Sorption (moisture gain) ([3]; target RH 30.0%): 0.21%
- Desorption ([3]; target RH 40.0%): 22.72%
- Hysteresis Cycle 1 ([3]; target RH 40.0%): 22.46%
- Sorption (moisture gain) ([3]; target RH 40.0%): 0.26%
- Sorption (moisture gain) ([3]; target RH 50.0%): 0.28%
- Desorption ([3]; target RH 60.0%): 33.44%
- Hysteresis Cycle 1 ([3]; target RH 60.0%): 33.16%
- Sorption (moisture gain) ([3]; target RH 60.0%): 0.27%
- Sorption (moisture gain) ([3]; target RH 70.0%): 0.91%
- Desorption ([3]; target RH 80.0%): 67.59%
- Hysteresis Cycle 1 ([3]; target RH 80.0%): 49.10%
- Sorption (moisture gain) ([3]; target RH 80.0%, HCl): 18.5% and 18.48%
- Sorption (moisture gain) ([3]; target RH 85.0%): 46.91%
- Desorption ([3]; target RH 90.0%): 76.82%
- Sorption (moisture gain) ([3]; target RH 90.0%, HCl): 76.8% and 76.82%
- hygroscopicity ([3]; at and below 70% relative humidity): nonhygroscopic
Structure (SMILES): CC(=N)NC/C=C\CC[C@](C)(N)C(=O)O.CC(=N)NC/C=C\CC[C@](C)(N)C(=O)O.Cl.Cl.Cl [(2S,5Z)-2-amino-7-(ethanimidoylamino)-2-methylhept-5-enoic acid 1.5 HCl]
